The text below walks through data of US20100216779A1 (GLAXOSMITHKLINE LLC, priority 2007, published 2010).

What all share (type): cell-based
Test [1] has as its system NCI-H929 (multiple myeloma). The test can be described thus: Inhibition of cell proliferation, CellTiter-Glo, NCI-H929. The conditions noted are these: Homo sapiens, 72 h. How it is done:
C. Inhibition of Cell Proliferation
Cell proliferation was measured by either CellTiter-Glo (measures cellular ATP level as a surrogate for total cell number) or by InCell analyzer (counts number of nuclei as a measure of cell number). For CellTiter-Glo assay, exponentially growing cell lines of different tumor origins, cultured in appropriate media containing 10% fetal bovine serum at 37° C. in a 5% CO2 incubator, were plated at low density (less than 2000 cells/well) in 96-well plates. Twenty four hours post-plating, cells were treated with different concentrations of test compounds ranging from 30 uM to 1.5 nM. Several wells were left untreated as a control. Seventy two hours post-treatment, cell numbers were determined using 50-100 ul per well of CellTiter-Glo (Promega #G7573). Plates were incubated at 37° C. for 30 minutes and the chemiluminescent signal was read on the Victor V or Envison 2100 reader. […]
A general note: Cellular ATP, detected with luciferase, serves as a proxy for viable cell number.

A further test relates to COLO205 (colon). The experiment in a line: Inhibition of cell proliferation, CellTiter-Glo, COLO205. The conditions noted are these: Homo sapiens, COLO 205, 72 h. The essentials:
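Exponentially growing COLO205 cells in medium with 10% FBS were plated below 2000 cells/well at 37 °C, 5% CO2. Untreated wells served as controls.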

Test [2] deals with T1, IR (NIH-3T3 cells over expressing human IGF-1R or IR) (Homo sapiens, UniProt P06213).
T1 construct: expressed in transfected cells; host or cells: NIH-3T3 (mouse fibroblasts)
The test can be described thus: IR cellular autophosphorylation (DELFIA). The conditions noted are these: NIH-3T3 cells over expressing IR, insulin stimulated. The essentials: (§1)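 Read-out: DELFIA on lysates, receptor-specific capture antibody plus europium-labelled anti-phosphotyrosine, reported as % of IGF-1- or insulin-stimulated signal. Transfected NIH-3T3 cells got compound (30 uM–1.5 nM, 2 h) before a 15 min ligand pulse: IGF-1 30 ng/mL for IGF-1R, insulin 3 ug/mL for IR.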

The target in test [3] is T2, human IGF-1R (NIH-3T3 cells over expressing human IGF-1R) (Homo sapiens, UniProt P08069).
T2 construct: expressed in transfected cells; host or cells: NIH-3T3 (mouse fibroblasts)
The test can be described thus: IGF-1R cellular autophosphorylation (DELFIA). The conditions noted are these: IGF-1 stimulated. The gist of the method: as §1

T1 sequence (P06213 28-1382): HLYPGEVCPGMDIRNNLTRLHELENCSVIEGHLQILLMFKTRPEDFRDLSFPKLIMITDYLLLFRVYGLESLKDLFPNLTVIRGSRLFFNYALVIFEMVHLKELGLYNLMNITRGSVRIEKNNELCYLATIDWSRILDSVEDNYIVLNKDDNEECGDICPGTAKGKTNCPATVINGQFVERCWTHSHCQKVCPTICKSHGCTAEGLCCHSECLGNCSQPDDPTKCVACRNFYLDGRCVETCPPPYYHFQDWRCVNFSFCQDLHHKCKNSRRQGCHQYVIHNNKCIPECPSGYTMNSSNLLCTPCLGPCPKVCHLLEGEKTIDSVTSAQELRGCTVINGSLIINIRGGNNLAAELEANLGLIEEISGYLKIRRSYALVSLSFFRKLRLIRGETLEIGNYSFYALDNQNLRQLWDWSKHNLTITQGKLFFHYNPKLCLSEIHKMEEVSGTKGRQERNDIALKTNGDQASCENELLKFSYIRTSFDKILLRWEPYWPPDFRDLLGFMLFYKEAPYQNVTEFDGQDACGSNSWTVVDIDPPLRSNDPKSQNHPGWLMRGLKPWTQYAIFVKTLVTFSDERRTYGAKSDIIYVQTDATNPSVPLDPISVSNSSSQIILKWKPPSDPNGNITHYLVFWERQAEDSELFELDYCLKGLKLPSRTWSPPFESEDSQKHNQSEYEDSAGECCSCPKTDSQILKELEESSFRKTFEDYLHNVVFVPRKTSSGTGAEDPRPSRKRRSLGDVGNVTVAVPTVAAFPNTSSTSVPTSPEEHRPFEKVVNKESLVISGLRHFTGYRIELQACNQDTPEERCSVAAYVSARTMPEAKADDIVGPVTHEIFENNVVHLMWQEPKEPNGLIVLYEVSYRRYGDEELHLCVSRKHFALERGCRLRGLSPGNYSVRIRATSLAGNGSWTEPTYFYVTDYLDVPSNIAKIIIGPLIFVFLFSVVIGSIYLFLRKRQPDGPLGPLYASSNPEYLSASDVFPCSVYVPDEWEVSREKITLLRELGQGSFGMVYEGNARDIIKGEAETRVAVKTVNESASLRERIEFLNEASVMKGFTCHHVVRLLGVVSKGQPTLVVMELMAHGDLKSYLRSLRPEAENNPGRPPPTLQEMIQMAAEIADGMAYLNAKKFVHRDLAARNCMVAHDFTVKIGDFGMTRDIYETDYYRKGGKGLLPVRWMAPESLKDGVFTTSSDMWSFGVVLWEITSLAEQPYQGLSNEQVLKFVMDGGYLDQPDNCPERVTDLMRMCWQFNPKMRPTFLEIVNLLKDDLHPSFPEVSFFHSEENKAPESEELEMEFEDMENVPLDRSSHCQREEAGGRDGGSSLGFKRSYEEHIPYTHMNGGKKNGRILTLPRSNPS
T2 sequence (P08069 31-1367): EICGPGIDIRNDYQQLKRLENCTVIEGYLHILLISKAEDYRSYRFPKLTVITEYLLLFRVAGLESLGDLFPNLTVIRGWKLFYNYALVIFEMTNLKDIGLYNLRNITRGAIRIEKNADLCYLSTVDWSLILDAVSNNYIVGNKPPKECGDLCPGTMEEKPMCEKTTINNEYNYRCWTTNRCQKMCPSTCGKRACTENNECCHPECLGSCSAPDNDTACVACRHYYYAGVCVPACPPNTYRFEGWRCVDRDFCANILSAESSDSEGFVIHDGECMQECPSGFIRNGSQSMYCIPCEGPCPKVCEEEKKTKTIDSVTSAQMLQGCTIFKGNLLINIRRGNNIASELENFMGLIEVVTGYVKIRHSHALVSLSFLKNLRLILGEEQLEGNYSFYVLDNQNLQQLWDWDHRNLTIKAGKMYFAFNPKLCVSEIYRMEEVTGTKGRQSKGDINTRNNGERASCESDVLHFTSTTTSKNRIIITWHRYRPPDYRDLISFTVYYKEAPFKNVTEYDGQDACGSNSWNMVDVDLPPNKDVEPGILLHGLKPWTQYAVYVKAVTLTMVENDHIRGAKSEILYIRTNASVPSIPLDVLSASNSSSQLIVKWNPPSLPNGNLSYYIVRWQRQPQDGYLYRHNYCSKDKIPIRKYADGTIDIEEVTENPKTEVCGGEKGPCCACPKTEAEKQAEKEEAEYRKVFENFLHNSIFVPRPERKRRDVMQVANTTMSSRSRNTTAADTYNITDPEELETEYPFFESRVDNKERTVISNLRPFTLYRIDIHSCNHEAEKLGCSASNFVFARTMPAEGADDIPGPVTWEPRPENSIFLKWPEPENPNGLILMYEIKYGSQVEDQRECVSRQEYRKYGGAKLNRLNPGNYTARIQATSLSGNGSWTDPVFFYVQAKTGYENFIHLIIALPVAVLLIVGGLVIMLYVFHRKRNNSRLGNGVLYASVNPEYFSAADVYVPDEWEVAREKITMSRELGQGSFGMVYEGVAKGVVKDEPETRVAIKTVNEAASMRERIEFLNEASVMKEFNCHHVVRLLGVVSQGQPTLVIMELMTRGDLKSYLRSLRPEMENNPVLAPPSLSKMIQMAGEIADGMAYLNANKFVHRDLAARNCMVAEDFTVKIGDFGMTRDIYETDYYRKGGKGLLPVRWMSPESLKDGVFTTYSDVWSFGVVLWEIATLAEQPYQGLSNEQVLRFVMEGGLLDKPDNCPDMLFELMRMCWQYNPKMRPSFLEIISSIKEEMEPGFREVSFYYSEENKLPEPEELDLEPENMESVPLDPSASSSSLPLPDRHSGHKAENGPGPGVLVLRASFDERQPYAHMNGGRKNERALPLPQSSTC

For the molecule `COc1cc(N2CCC(N3CCN(CCS(C)(=O)=O)CC3)CC2)c(C)cc1Nc1nccc(-c2c(-c3cccc(C(=O)Nc4c(F)cccc4F)c3)nc3ccccn23)n1` [Example 115, N-(2,6-difluorophenyl)-3-[3-(2-{[5-methyl-2-(methyloxy)-4-(4-{4-[2-(methylsulfonyl)ethyl]-1-piperazinyl}-1-piperidinyl)phenyl]amino]-4-pyrimidinyl)imidazo[1,2-a]pyridin-2-yl]benzamide], the results for the IC50 (in test [1]; in the test on COLO205 (colon)) were less than 250 nM and 250 to 1000 nM, respectively.

In the case of `COc1cc(N2CCC(CCS(C)(=O)=O)CC2)ccc1Nc1nccc(-c2c(-c3ccc(OC)c(C(=O)Nc4c(F)cccc4F)c3)nc3cc(F)ccn23)n1` [Example 216, N-(2,6-difluorophenyl)-5-(7-fluoro-3-{2-[(2-(methyloxy)-4-{4-[2-(methylsulfonyl)ethyl]-1-piperidinyl}phenyl)amino]-4-pyrimidinyl}imidazo[1,2-a]pyridin-2-yl)-2-(methyloxy)benzamide], the IC50 (as a rule, the concentration at which inhibition is half-maximal) in test [1] was less than 250 nM; in the test on COLO205 (colon), 250 to 1000 nM.

Regarding `CCOc1cc(N2CCC(CCS(C)(=O)=O)CC2)c(C)cc1Nc1nccc(-c2c(-c3ccc(OC)c(C(=O)Nc4c(F)cccc4F)c3)nc3cc(F)ccn23)n1` [Example 218, N-(2,6-difluorophenyl)-5-(3-{2-[(2-(ethyloxy)-5-methyl-4-{4-[2-(methylsulfonyl)ethyl]-1-piperidinyl}phenyl)amino]-4-pyrimidinyl}-7-fluoroimidazo[1,2-a]pyridin-2-yl)-2-(methyloxy)benzamide], the IC50 in test [1] was less than 250 nM; in the test with COLO205 (colon), 250 to 1000 nM.

`COc1cc(N2CCN(CCS(C)(=O)=O)CC2)ccc1Nc1nccc(-c2c(-c3ccc(OC)c(C(=O)Nc4c(F)cccc4F)c3)nc3ccccn23)n1` [Example 135, N-(2,6-difluorophenyl)-2-(methyloxy)-5-(3-{2-[(2-(methyloxy)-4-{4-[2-(methylsulfonyl)ethyl]-1-piperazinyl}phenyl)amino]-4-pyrimidinyl}imidazo[1,2-a]pyridin-2-yl)benzamide]: the IC50 in test [2] is less than 100 nM; in test [3], less than 100 nM; in the test with COLO205 (colon), 250 to 1000 nM.

For `COc1cc(CCCN2CCN(C)CC2)ccc1Nc1nccc(-c2c(-c3cccc(C(=O)Nc4c(F)cccc4F)c3)nc3ccccn23)n1` [Example 141, N-(2,6-difluorophenyl)-3-{3-[2-({2-(methyloxy)-4-[3-(4-methyl-1-piperazinyl)propyl]phenyl}amino)-4-pyrimidinyl]imidazo[1,2-a]pyridin-2-yl}benzamide], the IC50 in test [2] is 100 to 500 nM; in test [3], 100 to 500 nM; in the test with COLO205 (colon) it was 250 to 1000 nM.

As to `COc1cc(N2CCC(N3CCSCC3)CC2)ccc1Nc1nccc(-c2c(-c3cccc(C(=O)Nc4c(F)cccc4F)c3)nc3ccccn23)n1` [Example 85, N-(2,6-difluorophenyl)-3-{3-[2-({2-(methyloxy)-4-[4-(4-thiomomholinyl)-1-piperidinyl]phenyl}amino)-4-pyrimidinyl]imidazo[1,2-a]pyridin-2-yl}benzamide], the IC50 in test [2] was 100 to 500 nM; in test [3], 100 to 500 nM; in the test on COLO205 (colon) it was 250 to 1000 nM.

Take `CCOc1cc(N2CCN(CCS(C)(=O)=O)CC2)ccc1Nc1nccc(-c2c(-c3cccc(C(=O)Nc4c(F)cccc4F)c3)nc3ccccn23)n1` [Example 145, N-(2,6-difluorophenyl)-3-(3-{2-[(2-(ethyloxy)-4-{4-[2-(methylsulfonyl)ethyl]-1-piperazinyl}phenyl)amino]-4-pyrimidinyl}imidazo[1,2-a]pyridin-2-yl)benzamide]: the figures for the IC50 (in test [2]; in test [3]; with COLO205 (colon)) were less than 100 nM, 100 to 500 nM and 250 to 1000 nM, respectively.

Consider `COc1cc([C@H]2CC[C@H](N3CCN(CCS(C)(=O)=O)CC3)CC2)ccc1Nc1nccc(-c2c(-c3cccc(C(=O)Nc4c(F)cccc4F)c3)nc3ccccn23)n1` [Example 94, N-(2,6-difluorophenyl)-3-[3-(2-{[2-(methyloxy)-4-(trans-4-{4-[2-(methylsulfonyl)-ethyl]-1-piperazinyl}cyclohexyl)phenyl]amino}-4-pyrimidinyl)imidazo[1,2-a]pyridin-2-yl]benzamide], for which the IC50 in test [2] is 100 to 500 nM; in test [3], less than 100 nM; in the test with COLO205 (colon), more than 1000 nM.

In the case of `CCOc1ccc(-c2nc3ccccn3c2-c2ccnc(Nc3ccc(CCN4CCN(C)CC4)cc3OC)n2)cc1C(=O)Nc1c(F)cccc1F` [Example 133, N-(2,6-difluorophenyl)-2-(ethyloxy)-5-{3-[2-({2-(methyloxy)-4-[2-(4-methyl-1-piperazinyl)ethyl]phenyl}amino)-4-pyrimidinyl]imidazo[1,2-a]pyridin-2-yl}benzamide], the IC50 was less than 100 nM in test [2], less than 100 nM in test [3] and 250 to 1000 nM with COLO205 (colon).

Take `COc1ccn2c(-c3ccnc(Nc4cccc(OCCN(C)C)c4)n3)c(-c3cccc(C(=O)Nc4c(F)cccc4F)c3)nc2c1` [Example 17, N-(2,6-difluorophenyl)-3-[3-{2-[(3-{[2-(dimethylamino)ethyl]oxy}phenyl)amino]-4-pyrimidinyl}-7-(methyloxy)imidazo[1,2-a]pyridin-2-yl]benzamide]: the IC50 is more than 500 nM in test [2], 100 to 500 nM in test [3] and 250 to 1000 nM in the test on COLO205 (colon).

Turning to `COc1ccn2c(-c3ccnc(Nc4ccc(N5CCC(N6CCCCC6)CC5)cc4OC)n3)c(-c3ccc(OC)c(C(=O)Nc4c(F)cccc4F)c3)nc2c1` [Example 5, 5-[3-(2-{[4-(1,4′-bipiperidin-1′-yl)-2-(methyloxy)phenyl]amino}-4-pyrimidinyl)-7-(methyloxy)imidazo[1,2-a]pyridin-2-yl]-N-(2,6-difluorophenyl)-2-(methyloxy)benzamide], the IC50 in test [2] was less than 100 nM; in test [3], less than 100 nM; with COLO205 (colon) it was more than 1000 nM.

`COc1ccn2c(-c3ccnc(Nc4cccc(OCCN(C)C)c4)n3)c(-c3cccc(C(=O)Nc4ccc(F)cc4F)c3)nc2c1` [Example 16, N-(2,4-difluorophenyl)-3-[3-{2-[(3-{[2-(dimethylamino)ethyl]oxy}phenyl)amino]-4-pyrimidinyl}-7-(methyloxy)imidazo[1,2-a]pyridin-2-yl]benzamide]: the IC50 in test [2] is less than 100 nM; in test [3], less than 100 nM; in the test on COLO205 (colon), 250 to 1000 nM.

On to `Cc1cc(N2CCC(N3CCCCC3)CC2)ccc1Nc1nccc(-c2c(-c3cccc(C(=O)Nc4c(F)cccc4F)c3)nc3ccccn23)n1` [Example 53, 3-[3-(2-{[4-(1,4′-bipiperidin-1′-yl)-2-methylphenyl]amino}-4-pyrimidinyl)imidazo[1,2-a]pyridin-2-yl]-N-(2,6-difluorophenyl)benzamide], for which the figures for the IC50 (in test [2]; in test [3]; in the test with COLO205 (colon)) were 100 to 500 nM, less than 100 nM and 250 to 1000 nM, respectively.

`COc1cc(N2CCC(N3CCCCC3)CC2)c(C)cc1Nc1nccc(-c2c(-c3ccc(OC)c(C(=O)Nc4c(F)cccc4F)c3)nc3ccccn23)n1` [Example 109, 5-[3-(2-{[4-(1,4′-bipiperidin-1′-yl)-5-methyl-2-(methyloxy)phenyl]amino]-4-pyrimidinyl)imidazo[1,2-a]pyridin-2-yl]-N-(2,6-difluorophenyl)-2-(methyloxy)benzamide]: the IC50 in test [2] was less than 100 nM; in test [3] it was less than 100 nM; in the test on COLO205 (colon), less than 250 nM.
